The values that follow come from PubChem BioAssay (NCI).

Some test systems named below: OVCAR-5 ovarian; OVCAR-4 ovarian; SNB-19 CNS; UACC-62 melanoma; SK-MEL-5 melanoma; COLO 205 colon; SK-MEL-2 melanoma; NCI-H226 lung; A549 NSCLC; DU-145 prostate.
Common to all, as to experiment: NCI anticancer screen, dose series, 48 h

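Grown in 96-well plates, cells were treated for 48 hours with each compound at five concentrations. Insufficient inhibition: endpoint recorded as highest concentration tested. Here, GI50 denotes the concentration required for 50% inhibition of growth. The concentration for full growth arrest is given as TGI.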 A value given as a limit tells only on which side of the number the result lay.

Take `O=S(=O)(c1ccc(-c2nnc(-c3ccc(F)cc3)o2)cc1)c1ccc(-c2nnc(-c3ccc(F)cc3)o2)cc1`: the TGI in the experiment on OVCAR-5 ovarian, in the experiment on OVCAR-4 ovarian, in the experiment with SNB-19 CNS, in the experiment on UACC-62 melanoma, in the experiment with SK-MEL-5 melanoma and with COLO 205 colon was greater than 100 µM each time. Also, the TGI with SK-MEL-2 melanoma, with NCI-H226 lung, with A549 NSCLC and in the experiment with DU-145 prostate was greater than 100 µM throughout.
With `O=S(=O)(O)c1cccc2cccc(N=Nc3c(O)ccc4ccccc34)c12`, the TGI in the experiment on OVCAR-5 ovarian, with OVCAR-4 ovarian, in the experiment on SNB-19 CNS, with UACC-62 melanoma, in the experiment on SK-MEL-5 melanoma and with COLO 205 colon was greater than 100 µM each time. Moreover, the TGI with SK-MEL-2 melanoma, in the experiment with NCI-H226 lung, in the experiment with A549 NSCLC and in the experiment with DU-145 prostate was greater than 100 µM throughout.
For the molecule `COc1ccc(/C=C/C(=O)c2ccc(-n3cc(CN4CCN(c5cc6c(cc5F)c(=O)c(C(=O)O)cn6C5CC5)CC4)nn3)cc2)cc1OC`, the GI50 is 3.7 µM in the experiment with OVCAR-5 ovarian; 3.94 µM with OVCAR-4 ovarian; 4.52 µM in the experiment on SNB-19 CNS; 2.83 µM in the experiment on UACC-62 melanoma; 2.64 µM in the experiment with SK-MEL-5 melanoma; 5.09 µM in the experiment on COLO 205 colon. The GI50 with SK-MEL-2 melanoma was 21.1 µM; with NCI-H226 lung it was 2.39 µM; in the experiment with A549 NSCLC, 2.98 µM; in the experiment on DU-145 prostate, 3.67 µM. Besides, the TGI in the experiment on OVCAR-5 ovarian is 25.7 µM; in the experiment with OVCAR-4 ovarian it was 15.5 µM; in the experiment on SNB-19 CNS, 66.7 µM; with UACC-62 melanoma, 8.84 µM; in the experiment on SK-MEL-5 melanoma, 7.74 µM; with COLO 205 colon it was greater than 100 µM. Also, the TGI with SK-MEL-2 melanoma is greater than 100 µM; in the experiment on NCI-H226 lung, 6.63 µM; in the experiment with A549 NSCLC, greater than 100 µM; in the experiment with DU-145 prostate it was 34.9 µM.
As for `CCOC(=O)c1c(C)nc2c(c1-c1cn(-c3ccccc3)nc1-c1ccccc1)C(=O)c1ccccc1-2`, the TGI in the experiment with OVCAR-5 ovarian, with OVCAR-4 ovarian, in the experiment on SNB-19 CNS, in the experiment with UACC-62 melanoma, in the experiment with SK-MEL-5 melanoma and with COLO 205 colon was greater than 100 µM each time. Further, the TGI with SK-MEL-2 melanoma, in the experiment on NCI-H226 lung, with A549 NSCLC and in the experiment on DU-145 prostate was greater than 100 µM throughout.
For the molecule `Cc1ccc(S(=O)(=O)[C@@H](Cl)[C@H]2N=C(Cl)NN=C2c2ccccc2)cc1`, the TGI is greater than 100 µM in the experiment on OVCAR-5 ovarian; 36.6 µM in the experiment on OVCAR-4 ovarian; greater than 100 µM in the experiment on SNB-19 CNS; 44 µM with UACC-62 melanoma; 34.5 µM in the experiment on SK-MEL-5 melanoma; 75 µM in the experiment with COLO 205 colon. Also, the TGI with SK-MEL-2 melanoma is 34.8 µM; in the experiment on NCI-H226 lung, 61 µM; in the experiment on A549 NSCLC it was greater than 100 µM; with DU-145 prostate it was 70.9 µM.
As for `C=C[C@@]1(O)CCCC[C@@H]1CC(Sc1ccccc1)Sc1ccccc1`, the TGI with OVCAR-5 ovarian was 32.9 µM; in the experiment with OVCAR-4 ovarian, 32.9 µM; in the experiment with SNB-19 CNS it was 35.6 µM; in the experiment on UACC-62 melanoma, greater than 100 µM; in the experiment on SK-MEL-5 melanoma, 30.8 µM; in the experiment on COLO 205 colon it was 32.3 µM. In addition, the TGI in the experiment with SK-MEL-2 melanoma was 32.3 µM; with NCI-H226 lung it was 38.7 µM; in the experiment on A549 NSCLC, 36.2 µM; with DU-145 prostate, 32.2 µM.
On to `CN1N=C(c2ccncc2)OC1c1cccc(C(F)(F)F)c1` (stereo not given), for which the TGI in the experiment on OVCAR-5 ovarian, with OVCAR-4 ovarian, in the experiment on SNB-19 CNS, with UACC-62 melanoma, in the experiment with SK-MEL-5 melanoma and in the experiment with COLO 205 colon was greater than 100 µM each time. Also, the TGI with SK-MEL-2 melanoma, in the experiment on NCI-H226 lung, in the experiment with A549 NSCLC and in the experiment on DU-145 prostate was greater than 100 µM each time.
For `Cc1ccnc2nc(N)ccc12`, the TGI in the experiment on OVCAR-5 ovarian, with OVCAR-4 ovarian, in the experiment with SNB-19 CNS, in the experiment on UACC-62 melanoma, in the experiment with SK-MEL-5 melanoma and in the experiment with COLO 205 colon was greater than 100 µM in each case. The TGI with SK-MEL-2 melanoma, with NCI-H226 lung, in the experiment on A549 NSCLC and with DU-145 prostate was greater than 100 µM each time.
As for `CC12CCCCC1=[N+]([O-])C(C)(C)N2O` (stereo not given), the TGI in the experiment on OVCAR-5 ovarian, in the experiment with OVCAR-4 ovarian, with SNB-19 CNS, in the experiment with UACC-62 melanoma, in the experiment on SK-MEL-5 melanoma and in the experiment on COLO 205 colon was greater than 100 µM each time. For the same molecule, the TGI in the experiment on SK-MEL-2 melanoma, in the experiment with NCI-H226 lung, with A549 NSCLC and with DU-145 prostate was greater than 100 µM each time.
Consider `[O-][n+]1c(CN2CCCCC2)nc2cccc3c2c1-c1ccccc1-3`, for which the TGI in the experiment on OVCAR-5 ovarian is 50.5 µM; in the experiment with OVCAR-4 ovarian it was 77.4 µM; in the experiment on SNB-19 CNS, 89.4 µM; in the experiment with UACC-62 melanoma, 32.8 µM; in the experiment with SK-MEL-5 melanoma, 32.1 µM; in the experiment with COLO 205 colon it was 64.3 µM. The TGI in the experiment on SK-MEL-2 melanoma came out at 43.7 µM; in the experiment on NCI-H226 lung, 39.8 µM; in the experiment with A549 NSCLC, 33.1 µM; in the experiment with DU-145 prostate it was 41.5 µM.
For the molecule `COc1ccccc1N=Nc1c(O)c(S(=O)(=O)O)cc2cc(S(=O)(=O)O)ccc12`, the TGI in the experiment on OVCAR-5 ovarian, with OVCAR-4 ovarian, with SNB-19 CNS, in the experiment on UACC-62 melanoma, with SK-MEL-5 melanoma and in the experiment on COLO 205 colon was greater than 100 µM throughout. Moreover, the TGI with SK-MEL-2 melanoma, in the experiment with NCI-H226 lung, in the experiment with A549 NSCLC and in the experiment on DU-145 prostate was greater than 100 µM in each case.
As to `O=C1C=C2CCC[C@H]3OC(=O)C[C@@]23CC1`, the TGI with OVCAR-5 ovarian, with OVCAR-4 ovarian, with SNB-19 CNS, with UACC-62 melanoma, with SK-MEL-5 melanoma and with COLO 205 colon was greater than 100 µM throughout. Besides, the TGI in the experiment with SK-MEL-2 melanoma, in the experiment with NCI-H226 lung, in the experiment with A549 NSCLC and in the experiment on DU-145 prostate was greater than 100 µM in each case.
